The numbers were not newly measured in US9314021B2, “Formulations containing insect repellent compounds” (E I DU PONT DE NEMOURS AND COMPANY, priority 2004, dated 2016), which cites them from elsewhere.

This series deals with ant species Monomorium destructor. Conditions: pure undiluted compound; after 25 seconds of exposure; during feeding.

Turning to `CC1COC(=O)C2C(C)CCC12` (stereo not shown) [dihydronepetalactone], the “ants ceased to feed” value is reported as 50-60%.
